Assay results taken from paper PMC9738927, “A Newly Identified Monoterpenoid-Based Small Molecule Able to Support the Survival of Primary Cultured Dopamine Neurons and Alleviate MPTP-Induced Toxicity In Vivo” (Molecules, 2022).

What was measured:
[1] = tested on: MPTP-lesioned C57BL/6 mice; assay: DA and DOPAC levels in midbrain and striatum by HPLC-ED after MPTP lesion; assay type: in vivo
Method: Neurochemical analyses via HPLC-ED were conducted as described before. Microdissected samples of the striatum (ST) and midbrain were homogenized in 300 and 400 µL of cold 0.6 M HClO4, respectively, using a motor-driven grinder (Z359971, Sigma-Aldrich, USA) and the homogenate was spun for 15 min at 12,000 rpm (+4 °C). The pellet was diluted in 1 mL of 0.1 M NaCl and used for protein quantitation by Bradford (Bio Rad, USA) according to the manufacturer’s protocol. The clear supernatant was diluted twice with pure water and used for assay of DA and […] (DOPAC) by HPLC on Luna C18(2) column (5 μm particle size, L × I.D. 75 × 4.6 mm, Phenomenex, Torrance, CA, USA) with electrochemical detection (750 mV, DECADE II™ Electrochemical Detector; Antec, The Netherlands). The standard mixes containing 1, 2, and 3 ng of DA and DOPAC were repeatedly assayed throughout the entire procedure and used to plot the calibration curves for each substance. The areas of peaks were estimated using LabSolution LG/GC software version 5.54 (Shimadzu Corporation, Japan) and calibrated against the calibrated curves for corresponding standards. The contents of DA and DOPAC were expressed nanogram (ng) per milligram (mg) of protein assayed by Bradford.

[2] = tested on: naïve primary midbrain dopamine neurons; assay: Survival of naïve cultured dopamine neurons (TH-positive cell count); assay type: cell-based, mouse
Method: (§1) We developed a compound library containing 20 diol derivatives and screened them on cultured primary DA neurons (Supplementary Materials, Table S1). Compounds were taken at a dose of 0.1 and 1 μM (based on effective doses for the epoxydiol). Based on the screening results, we selected four compounds and tested them in a naïve and MPP^+-treated (1-methyl-4-phenylpyridinium (MPP^+), the neurotoxic metabolite of MPTP) DA culture at 1, 10, and 100 nM to select the compound with the lowest effective dose.
(§2) The survival of cultured mouse DA neurons was assessed as described before. Briefly, naïve or MPP^+ (dopaminergic selective neurotoxin)-challenged embryonic midbrain neurons were cultured in the presence or absence of a diol-like compound. The number of survived DA neurons was estimated after immunocytochemical staining with antibodies recognizing the key enzyme of dopamine synthesis—tyrosine hydroxylase.

[3] = tested on: MPP^+-treated primary midbrain dopamine neurons; assay: Survival of MPP+-challenged cultured dopamine neurons (TH-positive cell count); assay type: cell-based, mouse
Method: as §1, §2

[4] = tested on: naïve primary midbrain dopamine neurons; set-up: method as in PMID 31464415; details: cultured DA neurons; cited from earlier work
MPTP-treated mice = tested on: MPTP-treated mice; set-up: method as in PMID 31464415; details: related compound; cited from earlier work
[5] = 1 uM, compared to VEH-treated wells
[6] = positive control, compared to VEH

N[C@@H](Cc1ccc(O)c(O)c1)C(=O)O [L-DOPA, reference compound]
MPTP-induced reduction in DA level in the midbrain [1]: tended to alleviate

C=C(C)[C@@H]1CC=C(C)[C@@H](OC(C)=O)[C@@H]1OC(C)=O [Substance 1]
inhibition at 1 µM ([2]; Mus musculus, Neuron, 1 uM, compared to VEH-treated wells, read-out: Support effect / inhibition, Naïve dopamine neurons, 1 uM): 1 to 29%

C#CC1(O)C(O)C(C)=CCC1C(=C)C (stereo not drawn) [Substance 7]
Support effect / inhibition, Naïve dopamine neurons, 1 uM [2, 5]: - (29-1% – -)

C=CC1(O)C(O)C(C)=CCC1C(=C)C (stereo not drawn) [Substance 8]
Support effect / inhibition, MPP+-treated dopamine neurons, 1 nM ([3]; 1 nM, compared to VEH-treated wells): 0 (0% – 0)
Support effect / inhibition, MPP+-treated dopamine neurons, 10 nM ([3]; 10 nM, compared to VEH-treated wells): 0 (0% – 0)
Support effect / inhibition, MPP+-treated dopamine neurons, 100 nM ([3]; 100 nM, compared to VEH-treated wells): 0 (0% – 0)

C=C(CSc1ccc(Cl)cc1)C1CC2OC2(C)C(O)C1O (stereo not drawn) [Substance 9]
Support effect / inhibition, Naïve dopamine neurons, 1 uM [2, 5]: - (29-1% – -)

C=C(CSC(C)(C)C)C1CC2OC2(C)C(O)C1O (stereo not drawn) [Substance 10]
Support effect / inhibition, Naïve dopamine neurons, 1 uM [2, 5]: - (29-1% – -)

C=C(CSCC(C)C)C1CC2OC2(C)C(O)C1O (stereo not drawn) [Substance 11]
Support effect / inhibition, Naïve dopamine neurons, 1 uM [2, 5]: - - (Inhibition 69-30% – - -)

C=C(CSCc1ccccc1)C1CC2OC2(C)C(O)C1O (stereo not drawn) [Substance 13]
Support effect / inhibition, Naïve dopamine neurons, 1 uM [2, 5]: - (29-1% – -)

C=C(C)[C@@H]1C[C@H]2O[C@@]2(C)[C@@H](O)[C@@H]1O [epoxydiol]
effective concentration in survival assay for DA neurons [4]: 100 nM
effective doses in survival assay of cultured dopamine neurons [4]: 0.1 to 1 µM
antiparkinsonian activity in vivo (effective dose) (MPTP-treated mice): 20 mg/kg

B1: GDNF: glial cell line-derived neurotrophic factor, positive control in the neuron survival assays (protein, UniProt P39905 78-211, looked up)
Glial cell line-derived …: SPDKQMAVLPRRERNRQAAAANPENSRGKGRRGQRGKNRGCVLTAIHLNVTDLGLGYETKEELIFRYCSGSCDAAETTYDKILKNLSRNRRLVSDKVGQACCRPIAFDDDLSFLDDNLVYHILRKHSAKRCGCI
survival of MPP+-treated primary midbrain dopamine neurons [3, 6]: promotes the survival
survival of naïve primary midbrain dopamine neurons [2, 6]: promotes the survival
